The target of the test is human mGlu5a receptor (Homo sapiens (Human), UniProt P41594). Put plainly: Intracellular Ca2+ mobilization assay (mGlu5 PAM). Type of test: cell-based. To be noted: for EC50: HEK-293 cells stably transfected with human mGlu5a, L-glutamate added at EC20 after pre-incubation with test compound, read-out: EC50 (nM) mGlu5PAM; for Emax: maximal response in % of the maximal stimulatory effect obtained with saturating concentrations of L-glutamate, read-out: Eff. (%). In outline:
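HEK-293 cells stably expressing human mGlu5a at low level were loaded with Fluo-4AM and preincubated 10–30 min at 37 °C with 11-point half-log compound dilutions. L-glutamate was then added at its daily-determined EC20 (typically around 80 μM). Peak fluorescence minus basal, normalized to maximal glutamate effect, was fitted to give EC50, Hill slope and maximal response.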

Sequence of human mGlu5a receptor (P41594 other isoform, or with tags, fused parts or gaps): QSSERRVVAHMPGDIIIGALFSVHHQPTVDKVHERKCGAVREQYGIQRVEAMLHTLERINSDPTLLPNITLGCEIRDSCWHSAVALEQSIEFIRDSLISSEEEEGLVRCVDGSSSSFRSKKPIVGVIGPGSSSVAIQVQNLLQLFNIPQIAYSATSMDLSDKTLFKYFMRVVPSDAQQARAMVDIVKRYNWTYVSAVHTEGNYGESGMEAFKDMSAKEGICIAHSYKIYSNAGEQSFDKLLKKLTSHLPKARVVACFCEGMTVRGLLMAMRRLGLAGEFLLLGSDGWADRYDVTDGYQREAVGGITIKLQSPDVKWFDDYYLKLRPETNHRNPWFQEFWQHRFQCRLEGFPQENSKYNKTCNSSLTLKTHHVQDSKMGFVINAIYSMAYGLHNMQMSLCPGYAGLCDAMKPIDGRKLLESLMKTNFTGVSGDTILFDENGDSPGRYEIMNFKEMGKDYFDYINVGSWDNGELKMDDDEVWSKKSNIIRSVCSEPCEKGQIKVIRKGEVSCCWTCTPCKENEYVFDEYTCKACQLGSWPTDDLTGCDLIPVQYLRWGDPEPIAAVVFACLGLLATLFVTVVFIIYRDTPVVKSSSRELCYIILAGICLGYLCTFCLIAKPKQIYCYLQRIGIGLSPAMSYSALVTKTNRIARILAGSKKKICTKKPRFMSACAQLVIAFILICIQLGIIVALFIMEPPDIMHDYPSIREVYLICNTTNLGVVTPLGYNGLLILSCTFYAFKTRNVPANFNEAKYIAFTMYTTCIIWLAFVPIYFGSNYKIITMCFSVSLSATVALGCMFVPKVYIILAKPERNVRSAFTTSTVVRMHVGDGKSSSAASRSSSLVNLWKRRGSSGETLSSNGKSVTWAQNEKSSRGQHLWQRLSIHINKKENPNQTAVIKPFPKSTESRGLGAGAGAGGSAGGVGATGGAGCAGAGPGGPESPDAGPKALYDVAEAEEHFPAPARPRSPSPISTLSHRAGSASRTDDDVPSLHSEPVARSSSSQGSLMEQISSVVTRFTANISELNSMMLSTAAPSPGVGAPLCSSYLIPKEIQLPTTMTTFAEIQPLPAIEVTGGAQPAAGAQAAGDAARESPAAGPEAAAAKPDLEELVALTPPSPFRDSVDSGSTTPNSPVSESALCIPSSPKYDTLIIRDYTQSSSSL

As for `O=C1CC2(CCCC2)CN1c1ncc(C#Cc2ccccc2)cn1` [Example 117, 2-(5-Phenylethynyl-pyrimidin-2-yl)-2-aza-spiro[4.4]nonan-3-one], the concentration for a half-maximal effect (EC50) was determined as 44 nM and the Emax was determined as 84%.

For `CC1(C)CC(=O)N(c2ncc(C#Cc3cccc(F)c3)cn2)C1` [Example 118, 1-[5-(3-Fluoro-phenylethynyl)-pyrimidin-2-yl]-4,4-dimethyl-pyrrolidin-2-one], the half-maximal effective concentration (EC50) was determined as 13 nM and the Emax came to 78%.

Take `CC1(C)CC(=O)N(c2ncc(C#Cc3cccc(Cl)c3)cn2)C1` [Example 119, 1-[5-(3-Chloro-phenylethynyl)-pyrimidin-2-yl]-4,4-dimethyl-pyrrolidin-2-one]: the concentration for a half-maximal effect (EC50) came out at 11 nM and the Emax worked out at 26%.

Take `CC1(C)CC(=O)N(c2ncc(C#Cc3ccc(F)cc3)cn2)C1` [Example 120, 1-[5-(4-Fluoro-phenylethynyl)-pyrimidin-2-yl]-4,4-dimethyl-pyrrolidin-2-one]: the EC50 turned out to be 92 nM and the Emax stood at 81%.

On to `CC1(C)CC(=O)N(c2ncc(C#Cc3cc(F)ccc3F)cn2)C1` [Example 121, 1-[5-(2,5-Difluoro-phenylethynyl)-pyrimidin-2-yl]-4,4-dimethyl-pyrrolidin-2-one], for which the EC50 was 41 nM and the Emax was 70%.

On to `CN1C(=O)N(c2ncc(C#Cc3ccccc3)cn2)CC1(C)C` [Example 122, 3,4,4-Trimethyl-1-(5-phenylethynyl-pyrimidin-2-yl)-imidazolidin-2-one], for which the EC50 is 11 nM and the Emax came out at 36%.

Consider `CN1C(=O)N(c2ncc(C#Cc3cccc(F)c3)cn2)CC1(C)C` [Example 123, 1-[5-(3-Fluoro-phenylethynyl)-pyrimidin-2-yl]-3,4,4-trimethyl-imidazolidin-2-one], for which the EC50 worked out at 18 nM and the Emax was determined as 30%.

Regarding `CN1C(=O)N(c2ncc(C#Cc3cc(F)ccc3F)cn2)CC1(C)C` [Example 124, 1-[5-(2,5-Difluoro-phenylethynyl)-pyrimidin-2-yl]-3,4,4-trimethyl-imidazolidin-2-one], the EC50 came to 7 nM and the Emax stood at 43%.

As to `CN1C(=O)N(c2ncc(C#Cc3ccc(F)cc3)cn2)CC1(C)C` [Example 125, 1-[5-(4-Fluoro-phenylethynyl)-pyrimidin-2-yl]-3,4,4-trimethyl-imidazolidin-2-one], the EC50 is 13 nM and the Emax is 44%.

In the case of `CN1C(=O)N(c2ncc(C#Cc3ccc(F)c(F)c3)cn2)CC1(C)C` [Example 126, 1-[5-(3,4-Difluoro-phenylethynyl)-pyrimidin-2-yl]-3,4,4-trimethyl-imidazolidin-2-one], the EC50 came out at 23 nM and the Emax is 36%.

For the molecule `CC1(C)CCN(c2ncc(C#Cc3ccccc3)cn2)C(=O)C1` [Example 134, 4,4-Dimethyl-1-(5-phenylethynyl-pyrimidin-2-yl)-piperidin-2-one], the EC50 stood at 42 nM and the Emax was 90%.

Consider `CC1(C)CCN(c2ncc(C#Cc3cccc(F)c3)cn2)C(=O)C1` [Example 135, 1-[5-(3-Fluoro-phenylethynyl)-pyrimidin-2-yl]-4,4-dimethyl-piperidin-2-one], for which the EC50 was 35 nM and the Emax came to 47%.

`CC1(C)CCN(c2ncc(C#Cc3cc(F)ccc3F)cn2)C(=O)C1` [Example 136, 1-[5-(2,5-Difluoro-phenylethynyl)-pyrimidin-2-yl]-4,4-dimethyl-piperidin-2-one]: the EC50 was 31 nM and the Emax is 49%.

For the molecule `CN1C(=O)N(c2ncc(C#Cc3ccccc3)cn2)CCC1(C)C` [Example 137, 3,4,4-Trimethyl-5′-phenylethynyl-3,4,5,6-tetrahydro-[1,2′]bipyrimidinyl-2-one], the concentration for a half-maximal effect (EC50) was 66 nM and the Emax was 74%.

With `CN1C(=O)N(c2ncc(C#Cc3cccc(F)c3)cn2)CCC1(C)C` [Example 138, 5′-(3-Fluoro-phenylethynyl)-3,4,4-trimethyl-3,4,5,6-tetrahydro-[1,2′]bipyrimidinyl-2-one], the EC50 turned out to be 60 nM and the Emax was found to be 67%.

Consider `CN1C(=O)N(c2ncc(C#Cc3cc(F)ccc3F)cn2)CCC1(C)C` [Example 139, 5′-(2,5-Difluoro-phenylethynyl)-3,4,4-trimethyl-3,4,5,6-tetrahydro-[1,2′]bipyrimidinyl-2-one], for which the EC50 is 57 nM and the Emax is 54%.

As for `CC(C)N1C(=O)N(c2ncc(C#Cc3ccccc3)cn2)CC1(C)C` [Example 140, 3-Isopropyl-4,4-dimethyl-1-(5-phenylethynyl-pyrimidin-2-yl)-imidazolidin-2-one], the EC50 came to 28 nM and the Emax was determined as 58%.

Regarding `CC(C)N1C(=O)N(c2ncc(C#Cc3cccc(F)c3)cn2)CC1(C)C` [Example 141, 1-[5-(3-Fluoro-phenylethynyl)-pyrimidin-2-yl]-3-isopropyl-4,4-dimethyl-imidazolidin-2-one], the concentration for a half-maximal effect (EC50) came to 28 nM and the Emax worked out at 39%.

For the molecule `CC(C)N1C(=O)N(c2ncc(C#Cc3ccc(F)cc3)cn2)CC1(C)C` [Example 142, 1-[5-(4-Fluoro-phenylethynyl)-pyrimidin-2-yl]-3-isopropyl-4,4-dimethyl-imidazolidin-2-one], the EC50 turned out to be 78 nM and the Emax stood at 74%.

`CCN1C(=O)N(c2ncc(C#Cc3ccc(F)cc3)cn2)CC1(C)C` [Example 143, 1-[5-(4-Fluoro-phenylethynyl)-pyrimidin-2-yl]-3-ethyl-4,4-dimethyl-imidazolidin-2-one]: the EC50 came to 47 nM and the Emax turned out to be 68%.

With `CCN1C(=O)N(c2ncc(C#Cc3cccc(F)c3)cn2)CC1(C)C` [Example 144, 1-[5-(3-Fluoro-phenylethynyl)-pyrimidin-2-yl]-3-ethyl-4,4-dimethyl-imidazolidin-2-one], the EC50 was found to be 31 nM and the Emax amounted to 58%.

Consider `CN1C(=O)N(c2ncc(C#Cc3ccccc3)cn2)CC12CC2` [Example 147, 4-Methyl-6-(5-phenylethynyl-pyrimidin-2-yl)-4,6-diaza-spiro[2.4]heptan-5-one], for which the EC50 came to 25 nM and the Emax is 36%.

For `CC1(C)CC(=O)N(c2ccc(C#Cc3ccccc3)nn2)C1` [Example 150, 4,4-Dimethyl-1-(6-(phenylethynyl)pyridazin-3-yl)pyrrolidin-2-one], the EC50 worked out at 21 nM and the Emax was 113%.

In the case of `CC1(C)CCN(c2ccc(C#Cc3ccccc3)nn2)C(=O)C1` [Example 151, 4,4-Dimethyl-1-(6-(phenylethynyl)pyridazin-3-yl)piperidin-2-one], the concentration giving a half-maximal response (EC50) is 19 nM and the Emax was 130%.

For the molecule `CC1(C)CN(c2ccc(C#Cc3ccccc3)nn2)C(=O)O1` [Example 152, 5,5-Dimethyl-3-(6-(phenylethynyl)pyridazin-3-yl)oxazolidin-2-one], the EC50 was 15 nM and the Emax was 112%.

Take `CC1(C)CCN(c2ccc(C#Cc3ccccc3)nn2)C(=O)O1` [Example 153, 6,6-Dimethyl-3-(6-(phenylethynyl)pyridazin-3-yl)-1,3-oxazinan-2-one]: the concentration for a half-maximal effect (EC50) was 14 nM and the Emax turned out to be 86%.

Turning to `Cc1cccc(C#Cc2ccc(N3CC(C)(C)N(C)C3=O)nn2)c1` [Example 154, 3,4,4-Trimethyl-1-(6-(m-tolylethynyl)pyridazin-3-yl)imidazolidin-2-one], the EC50 was 61 nM and the Emax stood at 108%.

On to `CN1C(=O)N(c2ccc(C#Cc3cccc(Cl)c3)nn2)CC1(C)C` [Example 155, 1-(6-((3-Chlorophenyl)ethynyl)pyridazin-3-yl)-3,4,4-trimethylimidazolidin-2-one], for which the EC50 was 73 nM and the Emax is 95%.

As to `CN1C(=O)N(c2cnc(C#Cc3ccccc3)cn2)CC1(C)C` [Example 156, 3,4,4-Trimethyl-1-(5-(phenylethynyl)pyrazin-2-yl)imidazolidin-2-one], the EC50 came out at 24 nM and the Emax was 58%.

For `CN1C(=O)N(c2cnc(C#Cc3cccnc3)cn2)CC1(C)C` [Example 157, 3,4,4-Trimethyl-1-(5-(pyridin-3-ylethynyl)pyrazin-2-yl)imidazolidin-2-one], the 50% effective concentration (EC50) came to 206 nM and the Emax was determined as 34%.

As to `CN1C(=O)N(c2cnc(C#Cc3cccc(F)c3)cn2)CC1(C)C` [Example 158, 1-(5-((3-Fluorophenyl)ethynyl)pyrazin-2-yl)-3,4,4-trimethylimidazolidin-2-one], the concentration giving a half-maximal response (EC50) worked out at 46 nM and the Emax came to 36%.

Turning to `CN1C(=O)N(c2cnc(C#Cc3ccc(F)cc3)cn2)CC1(C)C` [Example 159, 1-(5-((4-Fluorophenyl)ethynyl)pyrazin-2-yl)-3,4,4-trimethylimidazolidin-2-one], the EC50 was found to be 49 nM and the Emax worked out at 49%.

Turning to `CC1(C)CC(=O)N(c2cnc(C#Cc3cccc(F)c3)cn2)C1` [Example 160], the EC50 was determined as 29 nM and the Emax stood at 39%.

With `CC1(C)CCN(c2cnc(C#Cc3cccc(F)c3)cn2)C(=O)C1` [Example 161, 1-(5-((3-Fluorophenyl)ethynyl)pyrazin-2-yl)-4,4-dimethylpiperidin-2-one], the EC50 came out at 29 nM and the Emax was 68%.

`CC1(C)CCN(c2cnc(C#Cc3cccnc3)cn2)C(=O)C1` [Example 162, 4,4-Dimethyl-1-(5-(pyridin-3-ylethynyl)pyrazin-2-yl)piperidin-2-one]: the EC50 worked out at 681 nM and the Emax is 76%.

As to `CC1(C)CCN(c2cnc(C#Cc3ccccc3)cn2)C(=O)C1` [Example 163, 4,4-Dimethyl-1-(5-(phenylethynyl)pyrazin-2-yl)piperidin-2-one], the 50% effective concentration (EC50) is 69 nM and the Emax stood at 74%.
